Measurements taken from US20240083861A1, “HSD17B13 INHIBITORS AND USES THEREOF” (FL2022-001, Inc., priority 2020, published 2024).

What follows are molecules tested against T1, Recombinant human HSD17B13 enzyme (Homo sapiens, UniProt Q7Z5P4) (assay: HSD17b13 NAD(P)H-Glo biochemical assay). Conditions: 50 uM estradiol, 1 mM NAD+, NAD(P)H-Glo luminescence; read-out: HSD17β13 IC50.
T1 sequence (Q7Z5P4 20-300): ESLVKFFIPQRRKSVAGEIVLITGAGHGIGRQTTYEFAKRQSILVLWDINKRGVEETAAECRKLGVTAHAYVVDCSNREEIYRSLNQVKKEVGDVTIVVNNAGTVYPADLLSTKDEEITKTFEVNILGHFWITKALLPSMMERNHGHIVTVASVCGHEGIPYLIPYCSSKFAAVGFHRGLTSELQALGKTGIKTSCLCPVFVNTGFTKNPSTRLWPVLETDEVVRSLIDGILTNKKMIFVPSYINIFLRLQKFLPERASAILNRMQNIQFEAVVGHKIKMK
In short: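 Luminescent NAD(P)H-Glo read-out, taken after 1 hour at RT, measured cofactor reduction. Substrate and cofactor were estradiol at 50 uM and NAD+ at 1 mM final, reacted with the recombinant human enzyme for 3 hours at 37° C in 20 mM Tris pH7.4, 0.002% Tween-20, 0.02% BSA. Compound was pre-incubated with enzyme for 20 minutes at RT.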

| Compound | IC50 [nM] |
| --- | --- |
| Cn1nc(-c2cc(C(F)(F)F)c(F)c(O)c2F)c2ncc(N3CCN(S(C)(=O)=O)CC3)nc21 [Compound 12, 2,6-Difluoro-3-(1-methyl-6-(4-(methylsulfonyl)piperazin-1-yl)-1H-pyrazolo[3,4-b]pyrazin-3-yl)-5-(trifluoromethyl)phenol] | 100 to 1000 |
| Cn1nc(-c2ccc(Cl)c(O)c2F)c2cnc(N3CCN(S(C)(=O)=O)C4(CC4)C3)nc21 [Compound 12.06, 6-Chloro-2-fluoro-3-(1-methyl-6-(4-(methylsulfonyl)-4,7-diazaspiro[2.5]octan-7-yl)-1H-pyrazolo[3,4-d]pyrimidin-3-yl)phenol] | 100 to 1000 |
| Cn1nc(-c2ccc(Cl)c(O)c2Cl)c2cnc(N3CCN(S(C)(=O)=O)C4(CC4)C3)nc21 [Compound 12.07, 2,6-Dichloro-3-(1-methyl-6-(4-(methylsulfonyl)-4,7-diazaspiro[2.5]octan-7-yl)-1H-pyrazolo[3,4-d]pyrimidin-3-yl)phenol] | 1000 to 30000 |
| CN(c1ncc2c(-c3cc(C(F)(F)F)c(F)c(O)c3F)nn(C)c2c1Cl)C1CCOCC1 [Compound 12.08, 3-(7-Chloro-1-methyl-6-(methyl(tetrahydro-2H-pyran-4-yl)amino)-1H-pyrazolo[4,3-c]pyridin-3-yl)-2,6-difluoro-5-(trifluoromethyl)phenol] | < 100 |
| Cn1nc(-c2cc(O)cc3ccccc23)c2cnc(N3CCN(S(C)(=O)=O)C4(CC4)C3)nc21 [Compound 12.09, 4-(1-Methyl-6-(4-(methylsulfonyl)-4,7-diazaspiro[2.5]octan-7-yl)-1H-pyrazolo[3,4-d]pyrimidin-3-yl)naphthalen-2-ol] | 1000 to 30000 |
| CS(=O)(=O)N1CCC(c2cc3[nH]nc(-c4cc(C(F)(F)F)cc(O)c4F)c3cn2)CC1 [Compound 13, 2-Fluoro-3-(6-(1-(methylsulfonyl)piperidin-4-yl)-1H-pyrazolo[4,3-c]pyridin-3-yl)-5-(trifluoromethyl)phenol] | 100 to 1000 |

Other lines, results leading:

| IC50 [nM] | Compound |
| --- | --- |
| < 100 | Cn1nc(-c2cc(C(F)(F)F)c(F)c(O)c2F)c2cnc(N3CCN(S(C)(=O)=O)CC3)nc21 [Compound 12.01, 2,6-Difluoro-3-(1-methyl-6-(4-(methylsulfonyl)piperazin-1-yl)-1H-pyrazolo[3,4-d]pyrimidin-3-yl)-5-(trifluoromethyl)phenol] |
| < 100 | Cn1nc(-c2cc(C(F)(F)F)c(F)c(O)c2F)c2ccc(N3CCN(S(C)(=O)=O)CC3)nc21 [Compound 12.02, 2,6-Difluoro-3-(1-methyl-6-(4-(methylsulfonyl)piperazin-1-yl)-1H-pyrazolo[3,4-b]pyridin-3-yl)-5-(trifluoromethyl)phenol] |
| < 100 | Cn1nc(-c2cc(C(F)(F)F)c(F)c(O)c2F)c2cnc(N3CCOCC34CC4)nc21 [Compound 12.03, 2,6-Difluoro-3-(1-methyl-6-(7-oxa-4-azaspiro[2.5]octan-4-yl)-1H-pyrazolo[3,4-d]pyrimidin-3-yl)-5-(trifluoromethyl)phenol] |
| < 100 | CN(c1ncc2c(-c3cc(C(F)(F)F)c(F)c(O)c3F)nn(C)c2n1)C1CC1 [Compound 12.04, 3-(6-(Cyclopropyl(methyl)amino)-1-methyl-1H-pyrazolo[3,4-d]pyrimidin-3-yl)-2,6-difluoro-5-(trifluoromethyl)phenol] |
| < 100 | Cn1nc(-c2cc(C(F)(F)F)c(F)c(O)c2F)c2cnc(N3CCN(S(C)(=O)=O)CC3)cc21 [Compound 12.05, 2,6-Difluoro-3-(1-methyl-6-(4-(methylsulfonyl)piperazin-1-yl)-1H-pyrazolo[4,3-c]pyridin-3-yl)-5-(trifluoromethyl)phenol] |

Same assay, conditions: at 10 uM compound; read-out: HSD17β13 % inhibition at 10 uM

| Compound | inhibition at 10 µM [%] |
| --- | --- |
| Cn1nc(-c2cccc(O)c2)c2cnc(N3CCN(S(C)(=O)=O)C4(CC4)C3)nc21 [Compound 12.10, 3-(1-Methyl-6-(4-(methylsulfonyl)-4,7-diazaspiro[2.5]octan-7-yl)-1H-pyrazolo[3,4-d]pyrimidin-3-yl)phenol] | < 20 |
